Molecules are shown by their SMILES.

In one assay the target is T1, Metabotropic glutamate receptor 2 (Homo sapiens, UniProt Q14416). The assay can be described thus: Evaluation of the functional effect on cAMP responses in RGT cells expressing human mGlu2 receptor. It counts as cell-based.
T1 sequence (Q14416 whole entry): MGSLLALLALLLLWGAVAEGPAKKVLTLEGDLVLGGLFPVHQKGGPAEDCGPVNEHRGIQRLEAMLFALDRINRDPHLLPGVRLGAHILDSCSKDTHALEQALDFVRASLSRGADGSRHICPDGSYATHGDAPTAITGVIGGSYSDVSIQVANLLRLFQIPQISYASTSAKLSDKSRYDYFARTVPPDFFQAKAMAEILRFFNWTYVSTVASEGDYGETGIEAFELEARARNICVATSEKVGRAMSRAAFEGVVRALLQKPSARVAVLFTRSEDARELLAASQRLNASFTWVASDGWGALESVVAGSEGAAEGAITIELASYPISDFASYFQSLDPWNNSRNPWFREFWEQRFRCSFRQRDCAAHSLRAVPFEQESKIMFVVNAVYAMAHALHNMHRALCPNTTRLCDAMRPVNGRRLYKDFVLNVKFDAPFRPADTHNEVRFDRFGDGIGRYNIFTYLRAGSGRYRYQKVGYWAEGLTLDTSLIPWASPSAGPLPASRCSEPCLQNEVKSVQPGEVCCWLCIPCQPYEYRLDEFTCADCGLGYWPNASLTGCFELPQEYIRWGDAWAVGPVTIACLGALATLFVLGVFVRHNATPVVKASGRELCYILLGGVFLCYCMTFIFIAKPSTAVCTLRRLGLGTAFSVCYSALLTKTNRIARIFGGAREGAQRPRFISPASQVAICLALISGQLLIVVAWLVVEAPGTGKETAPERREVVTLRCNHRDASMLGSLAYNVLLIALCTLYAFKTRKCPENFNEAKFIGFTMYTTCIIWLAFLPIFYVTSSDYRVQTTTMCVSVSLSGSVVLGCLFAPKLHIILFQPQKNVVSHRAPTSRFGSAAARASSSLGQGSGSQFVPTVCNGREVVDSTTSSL
`C[C@@H]1C[C@H]2[C@H](C(=O)O)[C@H]2[C@]1(N)C(=O)O`: the IC50 was found to be 1.75 µM.
In the case of `C[C@H]1C[C@](N)(C(=O)O)[C@H]2[C@H](C(=O)O)[C@H]21`, the concentration for a half-maximal effect (EC50) was > 100 µM.
Still for that read-out and setting: as for `C[C@H]1C[C@@](N)(C(=O)O)[C@@H]2[C@@H](C(=O)O)[C@@H]21`, the figure is 0.045 µM; as for `N[C@@]1(C(=O)O)CC[C@H]2[C@H](C(=O)O)[C@H]21`, 0.01 µM.
On the same count and under the same terms, the result for `C[C@@H]1C[C@@](N)(C(=O)O)[C@@H]2[C@@H](C(=O)O)[C@@H]21` (stereo in doubt; 13) reads 0.397 µM; that for `C[C@@H]1C[C@@](N)(C(=O)O)[C@@H]2[C@@H](C(=O)O)[C@@H]21` (stereo in doubt; (+)-13), 0.161 µM.

The target in another assay is T2, Metabotropic glutamate receptor 3 (Homo sapiens, UniProt Q14832). The assay can be described thus: Displacement of [3H]-341495 binding to membranes expressing recombinant human Metabotropic glutamate receptor 3.
T2 sequence (Q14832 whole entry): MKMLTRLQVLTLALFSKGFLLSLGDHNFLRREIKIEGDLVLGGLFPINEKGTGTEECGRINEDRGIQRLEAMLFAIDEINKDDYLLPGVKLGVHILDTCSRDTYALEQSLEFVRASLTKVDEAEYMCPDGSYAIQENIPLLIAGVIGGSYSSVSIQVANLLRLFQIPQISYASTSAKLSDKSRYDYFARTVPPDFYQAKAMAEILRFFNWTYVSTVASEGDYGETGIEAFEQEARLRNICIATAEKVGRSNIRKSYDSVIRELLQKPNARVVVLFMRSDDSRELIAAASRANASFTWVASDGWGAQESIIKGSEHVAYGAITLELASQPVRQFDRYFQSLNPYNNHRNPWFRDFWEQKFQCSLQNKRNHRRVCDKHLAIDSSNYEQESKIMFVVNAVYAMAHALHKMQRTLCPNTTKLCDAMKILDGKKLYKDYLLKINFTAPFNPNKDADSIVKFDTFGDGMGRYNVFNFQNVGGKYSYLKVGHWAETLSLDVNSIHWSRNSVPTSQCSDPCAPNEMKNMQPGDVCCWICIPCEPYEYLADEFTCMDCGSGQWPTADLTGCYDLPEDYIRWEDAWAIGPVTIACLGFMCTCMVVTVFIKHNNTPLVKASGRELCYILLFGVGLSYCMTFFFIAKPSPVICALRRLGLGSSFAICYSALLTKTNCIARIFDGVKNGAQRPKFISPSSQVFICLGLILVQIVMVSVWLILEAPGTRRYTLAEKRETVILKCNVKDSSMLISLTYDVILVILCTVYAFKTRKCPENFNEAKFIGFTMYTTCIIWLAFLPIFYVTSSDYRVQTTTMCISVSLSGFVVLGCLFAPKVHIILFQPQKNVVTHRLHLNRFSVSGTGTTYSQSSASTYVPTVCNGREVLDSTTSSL
For the compound `C[C@@H]1C[C@H]2[C@H](C(=O)O)[C@H]2[C@]1(N)C(=O)O`, the Ki worked out at 0.146 µM.
On the same count and under the same terms, the result for `C[C@H]1C[C@](N)(C(=O)O)[C@H]2[C@H](C(=O)O)[C@H]21` reads > 100 µM; that for `C[C@H]1C[C@@](N)(C(=O)O)[C@@H]2[C@@H](C(=O)O)[C@@H]21`, 0.511 µM; that for `C[C@@H]1C[C@@](N)(C(=O)O)[C@@H]2[C@@H](C(=O)O)[C@@H]21` (stereo in doubt; 13), 0.57 µM.
Still for that read-out and setting: as for `C[C@@H]1C[C@@](N)(C(=O)O)[C@@H]2[C@@H](C(=O)O)[C@@H]21` (stereo in doubt; (+)-13), the figure is 0.302 µM.

A further assay concerns the target T1, Metabotropic glutamate receptor 2. The assay can be described thus: Displacement of [3H]-341495 binding to membranes expressing recombinant human Metabotropic glutamate receptor 2.
Regarding `C[C@H]1C[C@](N)(C(=O)O)[C@H]2[C@H](C(=O)O)[C@H]21`, the inhibition constant (Ki) was > 100 µM.
The same measure, in the same setting: as for `N[C@@]1(C(=O)O)CC[C@H]2[C@H](C(=O)O)[C@H]21`, the figure is 0.074 µM.
For the compound `C[C@@H]1C[C@@](N)(C(=O)O)[C@@H]2[C@@H](C(=O)O)[C@@H]21` (stereo in doubt; 13), the inhibition constant (Ki) amounted to 0.409 µM.
On the same count and under the same terms, as for `C[C@@H]1C[C@@](N)(C(=O)O)[C@@H]2[C@@H](C(=O)O)[C@@H]21` (stereo in doubt; (+)-13), the figure is 0.165 µM.

The next assay addresses T2, Metabotropic glutamate receptor 3. The assay can be described thus: Evaluation of the functional effect on cAMP responses in RGT cells expressing human mGlu3 receptor. The assay is classed as cell-based.
As to `C[C@H]1C[C@](N)(C(=O)O)[C@H]2[C@H](C(=O)O)[C@H]21`, the concentration for a half-maximal effect (EC50) was > 100 µM.
On the same count and under the same terms, as for `C[C@H]1C[C@@](N)(C(=O)O)[C@@H]2[C@@H](C(=O)O)[C@@H]21`, the figure is 0.034 µM.
`C[C@@H]1C[C@@](N)(C(=O)O)[C@@H]2[C@@H](C(=O)O)[C@@H]21` (stereo in doubt; 13) had an IC50 of 2.94 µM.
Still for that read-out and setting: as for `C[C@@H]1C[C@@](N)(C(=O)O)[C@@H]2[C@@H](C(=O)O)[C@@H]21` (stereo in doubt; (+)-13), the figure is 1.05 µM.

(Values after ChEMBL document CHEMBL1139514, “Methyl substitution of 2-aminobicyclo[3.1.0]hexane 2,6-dicarboxylate (LY354740) determines functional activity at metabotropic glutamate receptors: identification of a subtype selective mGlu2 receptor agonist” (J Med Chem, 2005).)
